Literature values, collected in patent US12054764B2, “High-throughput screens for exploring biological functions of microscale biological systems” (THE BROAD INSTITUTE, INC., priority 2017, dated 2024).
In brackets after ≈: the same amount, converted by molar mass.

System: E. coli
Settings: stated in the legend of FIG. 10 as the loading concentration in 2% ultra-low melt agarose droplets

SMILES: CC1(C)S[C@@H]2[C@H](NC(=O)[C@H](N)c3ccccc3)C(=O)N2[C@H]1C(=O)O [Ampicillin]
- minimum inhibitory concentration (MIC): 5 µg/mL (≈ 14.3 µM)
